In patent US20080280933A1, “BENZIMIDAZOLYL COMPOUNDS” (priority 2006, published 2008):
Like-named read-outs stand apart in the source and are kept apart here.

Biological target: T1, mGluR2 receptor (metabotropic glutamate receptor 2) (Homo sapiens, UniProt Q14416)
T1 construct: expressed in transfected cells
Test: mGluR2 Potentiator Screen, FLIPR, EC10-EC20 glutamate challenge
Format: cell-based
Conditions: read-out: EC50
Protocol: Procedure for mGluR2 Potentiator Screen NLB Methods EC10-EC20 Challenge Cell Culture and Plating:
Cells used for this screen are HEK cells stably transfected with the mGluR2 receptor (metabotropic glutamate receptor 2) and the Gα15 G protein. Clones were identified by functional activity (FLIPR). Cells are grown in growth media containing: DMEM High Glucose with Glutamine and Na Pyruvate (GIBCO), 10% (v/v) Heat inactivate FBS (GIBCO) G418 500 ug/ml (from 50 mg/ml stock) (GIBCO) and Blasticidin 3 ug/ml (from 5 mg/ml stock made in H2O) (Invitrogen).
2 days before the assay cell are trypsinized with 0.25% trysin/EDTA (GIBCO), spun down at 1000 rpm for 5 minutes, resuspended in growth media and plated on polystyrene 384 well black wall/clear bottom poly-D-lysine coated plates at a density of approximately 18,000 cells/well in a volume of 50 μL per well. One day before the assay the growth media is removed from the plates by flicking and replaced with media containing DMEM High Glucose without Glutamine and Na Pyruvate (GIBCO) and 10% (v/v) dialyzed FBS (GIBCO). The reason for the removal of glutamine the day before the assay is to minimize the amount of glutamate that will be present during the assay, as endogenous glutarnate released from the cells can reduce the fluorescent response and interfere with the FLIPR screen.
FLIPR Methods and Data Analysis:
On the day of the assay, the FLIPR assay is performed using the following methods:
The pH is adjusted to 7.4 with 1M NaOH. Prepare a 2 mM (approx.) stock solution of Fluo-4.am (Molecular Probes) dye in DMSO −22 μl DMSO per 50 ug vial (440 μL per 1 mg vial). Make a 1 mM (approx.) flou-4, PA working solution per vial by adding 22 μl of 20% pluronic acid (PA) (Molecular Probes) in DMSO to each 50 ug vial (440 μL per 1 mg vial). Prepare a 250 mM Probenecid (Sigma) stock solution by dissolving 0.71 g into 5 ml 1N NaOH and 5 ml assay buffer (for each liter of assay wash buffer). Make 4 uM (approx.) dye incubation media by adding 2.50 ug vials per 11 ml DMEM high glucose without glutamine (220 ml per 1 mg vial). Add 110 μL probenecid stock per 11 ml (2.5 mM final [concentration]). To the dye media add 3 units/ml of glutamic-pyruvic transaminase (GPT, Sigma) and 3 mM Na Pyruvate. The assay has worked with dye concentrations from 2 uM to 8 uM dye as well. To the assay buffer from drug preparation, add 1.83 mls DMSO and 400 μL. 15.8% P104 (from New Leads biology) per liter for final concentrations of 0.18% DMSO and 0.006% P104. To the assay buffer for cell washing, add probenecid in the same manner and concentration that was used for the dye media.
Remove growth media from cell plates by flicking. Add 50 μl/well dye solution. Incubate 1 hour at 37° C. and 5% CO2. Remove dye solution and wash 3 times with assay buffer+probenecid (100 μl probenecid stock per 10 ml buffer), leaving 30 μL/well assay buffer. Wait at least 10-15 minutes. Compounds and agonist challenge additions are performed with the FLIPR. The in addition is for test compounds, which are added as 15 μL of 4× [concentration] of potentiator. The second 2nd addition is 15 μL of 4× [concentration] of agonist or challenge. This achieves 1× concentration of all compounds only after 2nd addition. The 1st and 2nd additions are performed separately using the FLIPR, which give 2 different data files. Compounds are pretreated at least 30 minutes before agonist addition.
Results are analyzed by dividing the peak fluorescent value of the FLIPR response by the […] to achieve a ratio response. The ratios are then analyzed by curve fitting programs. Since potent compounds can give an inverted U dose response curve (due to effects on endogenous glutamate by the potentiators) points are deleted at concentrations higher than the concentration that gives the maximum effect. Maximum values for dose response curves (forced fitting) are derived from standards on the plate.
Compound Preparation and Glutamate Challenge: […]

T1 sequence (Q14416 19-872, species assumed): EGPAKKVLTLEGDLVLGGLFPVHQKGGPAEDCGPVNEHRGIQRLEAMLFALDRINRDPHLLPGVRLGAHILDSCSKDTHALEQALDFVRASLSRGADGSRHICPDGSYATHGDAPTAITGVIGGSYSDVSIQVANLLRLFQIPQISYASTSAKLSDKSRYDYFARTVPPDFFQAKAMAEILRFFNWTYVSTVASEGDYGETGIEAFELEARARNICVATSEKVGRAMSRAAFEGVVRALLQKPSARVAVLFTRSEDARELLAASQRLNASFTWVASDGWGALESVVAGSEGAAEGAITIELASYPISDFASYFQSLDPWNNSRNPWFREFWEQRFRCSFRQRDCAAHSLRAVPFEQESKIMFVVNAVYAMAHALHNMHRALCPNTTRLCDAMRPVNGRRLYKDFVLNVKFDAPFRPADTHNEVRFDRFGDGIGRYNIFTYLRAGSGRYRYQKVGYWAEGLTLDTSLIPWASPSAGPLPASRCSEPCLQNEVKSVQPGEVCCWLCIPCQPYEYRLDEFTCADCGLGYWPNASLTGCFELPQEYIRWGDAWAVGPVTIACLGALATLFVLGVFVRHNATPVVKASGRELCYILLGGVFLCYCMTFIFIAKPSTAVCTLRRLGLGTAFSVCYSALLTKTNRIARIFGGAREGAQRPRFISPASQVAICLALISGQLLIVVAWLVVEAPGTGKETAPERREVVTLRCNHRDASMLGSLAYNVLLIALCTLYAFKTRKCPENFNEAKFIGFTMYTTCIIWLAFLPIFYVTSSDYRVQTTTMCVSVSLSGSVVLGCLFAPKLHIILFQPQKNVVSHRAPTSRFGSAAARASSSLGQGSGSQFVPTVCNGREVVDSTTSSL

EC50	Compound	EC50 (listed as 9)
2530 nM	2-(2-((4-(2-fluorophenyl)piperidin-1-yl)methyl)-1-methyl-1H-benzo[d]imidazol-5-yl)propan-2-ol [Entry 298]	–
5210 nM	2-((4-(2-Fluorophenyl)piperidin-1-yl)methyl)-1-methyl-1H-benzo[d]imidazol-5-carboxamide [Entry 363]	–
5210 nM	2-[4-(2-Methoxy-phenyl)-piperidin-1-ylmethyl]-1-methyl-1H-benzoimidazol-4-ylamine [Entry 264]	–
569 nM	2-[4-(2-Methoxy-phenyl)-piperidin-1-ylmethyl]-1-methyl-1H-benzoimidazole-5-carboxylic acid [Entry 288]	–
1810 nM	2-{[Cis-4-(3,4-Difluoro-phenyl)-3-methyl-piperidin-1-yl]methyl}-1-methyl-1H-benzoimidazole [Entry 462]	–
916 nM	5-(2-Methoxy-phenyl)-1-(1-methyl-1H-benzoimidazol-2-ylmethyl)-azepan-2-one [Entry 291]	–
241 nM	C[C@@H]1CN(Cc2nc3ccccc3n2C)CC[C@@H]1c1ccc(F)c(F)c1 (racemic) [Entry 462, 2-{[Cis-4-(3,4-Difluoro-phenyl)-3-methyl-piperidin-1-yl]methyl}-1-methyl-1H-benzoimidazole]	–
2360 nM	COCCn1c(CN2CC[C@H](c3ccccc3OC)[C@H](C)C2)nc2ccccc21 (relative stereo) [compound 336]	–
323 nM	COc1ccccc1[C@H]1CCN(Cc2nc3ccccc3n2C)C[C@H]1C (relative stereo) [compound 337]	–
1450 nM	COc1ccccc1[C@H]1CCN(Cc2nc3ccccc3n2C2CC2)C[C@H]1C (relative stereo) [compound 338]	–
604 nM	COc1ccccc1[C@H]1CCN(Cc2nc3ccccc3n2CCF)C[C@H]1C (relative stereo) [compound 339]	–
471 nM	C[C@@H]1CN(Cc2nc3ccccc3n2C)CC[C@@H]1c1ccc(C(F)(F)F)cc1 (relative stereo) [compound 404]	–
124 nM	C[C@@H]1CN(Cc2nc3ccccc3n2C)CC[C@@H]1c1ccccc1F (relative stereo) [compound 405]	–
181 nM	C[C@@H]1CN(Cc2nc3ccccc3n2C)CC[C@@H]1c1ccc(F)c(Cl)c1 (relative stereo) [compound 456]	–
454 nM	C[C@H]1C[C@@H](c2ccc(C(F)(F)F)cc2)CCN1Cc1nc2ccccc2n1C (relative stereo) [compound 457]	–
128 nM	COc1cc(C(F)(F)F)ccc1[C@H]1CCN(Cc2nc3ccccc3n2C)C[C@H]1C (relative stereo) [compound 459]	–
30.3 nM	C[C@@H]1CN(Cc2nc3ccccc3n2C)CC[C@@H]1c1ccc(Cl)cc1F (relative stereo) [compound 461]	–

EC50	Compound	EC50 (listed as 9)
40.7 nM	C[C@@H]1CN(Cc2nc3ccccc3n2C)CC[C@@H]1c1ccc(F)cc1F (relative stereo) [compound 463]	–
125 nM	COc1cc(F)ccc1[C@H]1CCN(Cc2nc3ccccc3n2C)C[C@H]1C (relative stereo) [compound 464]	–
375 nM	C[C@@H]1CN(Cc2nc3ccccc3n2C)CC[C@@H]1c1ccc(C(F)(F)F)c(F)c1 (relative stereo) [compound 465]	–
161 nM	C[C@@H]1CN(Cc2nc3ccccc3n2C)CC[C@@H]1c1ccc(C(F)(F)F)cc1C(F)(F)F (relative stereo) [compound 466]	–
53.1 nM	C[C@@H]1CN(Cc2nc3ccccc3n2C)CC[C@@H]1c1ccc(C(F)(F)F)cc1Cl (relative stereo) [compound 467]	–
86.2 nM	C[C@@H]1CN(Cc2nc3ccccc3n2C)CC[C@@H]1c1ccc(Cl)cc1Cl (relative stereo) [compound 468]	–
> 351 nM	Cc1cc(Cl)ccc1[C@H]1CCN(Cc2nc3ccccc3n2C)C[C@H]1C (relative stereo) [compound 469]	–
152 nM	C[C@@H]1CN(Cc2nc3ccccc3n2C)CC[C@@H]1c1ccc(F)c(F)c1 (single isomer, unassigned) [Entry 472, 2-{[Cis-4-(3,4-Difluoro-phenyl)-3-methyl-piperidin-1-yl]methyl}-1-methyl-1H-benzoimidazole]	–
1030 nM	C[C@@H]1CN(Cc2nc3ccccc3n2C)CC[C@@H]1c1ccc(F)c(F)c1 (single isomer, unassigned) [Entry 473, 2-{[Cis-4-(3,4-Difluoro-phenyl)-3-methyl-piperidin-1-yl]methyl}-1-methyl-1H-benzoimidazole]	–
73 nM	Cn1c(CN2CCC(c3ccccc3F)CC2)nc2cc(C#N)ccc21 [Entry 272, 2-((4-(2-Fluorophenyl)piperidin-1-yl)methyl)-1-methyl-1H-benzo[d]imidazole-5-carbonitrile]	–
211 nM	Cn1c(CN2CCC(c3ccccc3F)CC2)nc2ccc(C#N)cc21 [Entry 275, 2-((4-(2-Fluorophenyl)piperidin-1-yl)methyl)-3-methyl-3H-benzo[d]imidazole-5-carbonitrile]	–
204 nM	Cn1c(CN2CCC(c3ccccc3F)CC2)nc2ccc(-c3ccccc3)cc21 [Entry 276, 2-((4-(2-Fluorophenyl)piperidin-1-yl)methyl)-1-methyl-6-phenyl-1H-benzo[d]imidazole]	–
46.6 nM	COc1ccc2nc(CN3CCC(c4ccccc4F)CC3)n(C)c2c1 [Entry 278, 2-((4-(2-fluorophenyl)piperidin-1-yl)methyl)-6-methoxy-1-methyl-1H-benzo[d]imidazole]	–
1680 nM	COc1ccccc1C1CCN(Cc2nc3cc(C(=O)O)ccc3n2C)CC1 [Entry 288, 2-[4-(2-Methoxy-phenyl)-piperidin-1-ylmethyl]-1-methyl-1H-benzoimidazole-5-carboxylic acid]	–
4660 nM	COc1ccccc1C1CCC(=O)N(Cc2nc3ccccc3n2C)CC1 (centres unmarked) [Entry 291, 5-(2-Methoxy-phenyl)-1-(1-methyl-1H-benzoimidazol-2-ylmethyl)-azepan-2-one]	–
169 nM	Cn1c(CN2CCC(c3ccccc3F)CC2)nc2cc(CO)ccc21 [Entry 297, (2-((4-(2-Fluorophenyl)piperidin-1-yl)methyl)-1-methyl-1H-benzo[d]imidazol-5-yl)methanol]	–

Compound	EC50	EC50 (listed as 9)
2-((4-(2-Fluorophenyl)piperidin-1-yl)methyl)-1-methyl-1H-benzo[d]imidazole-5-carbonitrile [Entry 272]	439 nM	–
2-((4-(2-Fluorophenyl)piperidin-1-yl)methyl)-1-methyl-6-phenyl-1H-benzo[d]imidazole [Entry 276]	3100 nM	–
2-((4-(2-Fluorophenyl)piperidin-1-yl)methyl)-3-methyl-3H-benzo[d]imidazole-5-carbonitrile [Entry 275]	2620 nM	–
2-((4-(2-fluorophenyl)piperidin-1-yl)methyl)-6-methoxy-1-methyl-1H-benzo[d]imidazole [Entry 278]	1620 nM	–
4-Fluoro-2-((4-(2-Fluorophenyl)piperidin-1-yl)methyl)-1-methyl-1H-benzo[d]imidazole [Entry 325]	97.9 nM	–
CN1CC2(CCN(Cc3nc4ccccc4n3C)CC2)c2cc(Br)ccc21 [Entry 104, 5-Bromo-1-methyl-1'-[(1-methyl-1H-benzimidazole-2-yl)methyl]-1,2-dihydrospiro[indole-3,4'-piperidine]]	1410 nM	–
Cc1ccc2nc(CN3CCC(c4ccccc4F)CC3)n(C)c2c1 [Entry 279]	327 nM	2170 nM
